# Test system: Escherichia coli
# Assay: Antimicrobial activity against extended-spectrum-beta-lactamase producing Escherichia coli isolates
# Type: functional
SMILES,MIC50,MIC90
C[C@H]1[C@H](NC(=O)/C(=N\OC(C)(C)C(=O)O)c2csc(N)n2)C(=O)N1S(=O)(=O)O (stereo in doubt) [AZTREONAM],256 µg/mL,256 µg/mL
NCC[C@H](O)C(=O)N[C@@H]1C[C@H](N)[C@@H](O[C@H]2O[C@H](CN)[C@@H](O)[C@H](O)[C@H]2O)[C@H](O)[C@H]1O[C@H]1O[C@H](CO)[C@@H](O)[C@H](N)[C@H]1O [AMIKACIN],2 µg/mL,8 µg/mL
CO/N=C(\C(=O)N[C@@H]1C(=O)N2C(C(=O)[O-])=C(C[N+]3(C)CCCC3)CS[C@H]12)c1csc(N)n1 [CEFEPIME],16 µg/mL,256 µg/mL
CO/N=C(\C(=O)N[C@@H]1C(=O)N2C(C(=O)O)=C(COC(C)=O)CS[C@H]12)c1csc(N)n1 [CEFOTAXIME],256 µg/mL,256 µg/mL
CO[C@@]1(NC(=O)Cc2cccs2)C(=O)N2C(C(=O)O)=C(COC(N)=O)CS[C@@H]21 [CEFOXITIN],2 µg/mL,≥ 64 µg/mL

# Test system: Escherichia coli
# Assay: Antimicrobial activity against extended-spectrum-beta-lactamase producing Escherichia coli assessed as percent resistant isolates
# Type: functional
row,SMILES,Activity
1,NCC[C@H](O)C(=O)N[C@@H]1C[C@H](N)[C@@H](O[C@H]2O[C@H](CN)[C@@H](O)[C@H](O)[C@H]2O)[C@H](O)[C@H]1O[C@H]1O[C@H](CO)[C@@H](O)[C@H](N)[C@H]1O [AMIKACIN],98.1%
2,CO/N=C(\C(=O)N[C@@H]1C(=O)N2C(C(=O)[O-])=C(C[N+]3(C)CCCC3)CS[C@H]12)c1csc(N)n1 [CEFEPIME],0%
3,CO/N=C(\C(=O)N[C@@H]1C(=O)N2C(C(=O)O)=C(COC(C)=O)CS[C@H]12)c1csc(N)n1 [CEFOTAXIME],0%
4,CO[C@@]1(NC(=O)Cc2cccs2)C(=O)N2C(C(=O)O)=C(COC(N)=O)CS[C@@H]21 [CEFOXITIN],71.1%

# Test system: Klebsiella pneumoniae
# Assay: Antimicrobial activity against extended-spectrum-beta-lactamase producing Klebsiella pneumoniae isolates
# Type: functional
SMILES,MIC50,MIC90
C[C@H]1[C@H](NC(=O)/C(=N\OC(C)(C)C(=O)O)c2csc(N)n2)C(=O)N1S(=O)(=O)O (stereo in doubt) [AZTREONAM],256 µg/mL,256 µg/mL
NCC[C@H](O)C(=O)N[C@@H]1C[C@H](N)[C@@H](O[C@H]2O[C@H](CN)[C@@H](O)[C@H](O)[C@H]2O)[C@H](O)[C@H]1O[C@H]1O[C@H](CO)[C@@H](O)[C@H](N)[C@H]1O [AMIKACIN],2 µg/mL,16 µg/mL
CO/N=C(\C(=O)N[C@@H]1C(=O)N2C(C(=O)[O-])=C(C[N+]3(C)CCCC3)CS[C@H]12)c1csc(N)n1 [CEFEPIME],1 µg/mL,256 µg/mL
CO/N=C(\C(=O)N[C@@H]1C(=O)N2C(C(=O)O)=C(COC(C)=O)CS[C@H]12)c1csc(N)n1 [CEFOTAXIME],8 µg/mL,256 µg/mL
CO[C@@]1(NC(=O)Cc2cccs2)C(=O)N2C(C(=O)O)=C(COC(N)=O)CS[C@@H]21 [CEFOXITIN],2 µg/mL,≥ 64 µg/mL

# Test system: Proteus mirabilis
# Assay: Antimicrobial activity against extended-spectrum-beta-lactamase producing Proteus mirabilis isolates
# Type: functional
SMILES,MIC50,MIC90
C[C@H]1[C@H](NC(=O)/C(=N\OC(C)(C)C(=O)O)c2csc(N)n2)C(=O)N1S(=O)(=O)O (stereo in doubt) [AZTREONAM],0.25 µg/mL,1 µg/mL
NCC[C@H](O)C(=O)N[C@@H]1C[C@H](N)[C@@H](O[C@H]2O[C@H](CN)[C@@H](O)[C@H](O)[C@H]2O)[C@H](O)[C@H]1O[C@H]1O[C@H](CO)[C@@H](O)[C@H](N)[C@H]1O [AMIKACIN],2 µg/mL,4 µg/mL
CO/N=C(\C(=O)N[C@@H]1C(=O)N2C(C(=O)[O-])=C(C[N+]3(C)CCCC3)CS[C@H]12)c1csc(N)n1 [CEFEPIME],2 µg/mL,32 µg/mL
CO/N=C(\C(=O)N[C@@H]1C(=O)N2C(C(=O)O)=C(COC(C)=O)CS[C@H]12)c1csc(N)n1 [CEFOTAXIME],16 µg/mL,256 µg/mL
CO[C@@]1(NC(=O)Cc2cccs2)C(=O)N2C(C(=O)O)=C(COC(N)=O)CS[C@@H]21 [CEFOXITIN],2 µg/mL,8 µg/mL

# Test system: Proteus mirabilis
# Assay: Antimicrobial activity against extended-spectrum-beta-lactamase producing Proteus mirabilis assessed as percent resistant isolates
# Type: functional
row,SMILES,Activity
1,C[C@H]1[C@H](NC(=O)/C(=N\OC(C)(C)C(=O)O)c2csc(N)n2)C(=O)N1S(=O)(=O)O (stereo in doubt) [AZTREONAM],0%
2,NCC[C@H](O)C(=O)N[C@@H]1C[C@H](N)[C@@H](O[C@H]2O[C@H](CN)[C@@H](O)[C@H](O)[C@H]2O)[C@H](O)[C@H]1O[C@H]1O[C@H](CO)[C@@H](O)[C@H](N)[C@H]1O [AMIKACIN],100%
3,CO/N=C(\C(=O)N[C@@H]1C(=O)N2C(C(=O)[O-])=C(C[N+]3(C)CCCC3)CS[C@H]12)c1csc(N)n1 [CEFEPIME],0%
4,CO/N=C(\C(=O)N[C@@H]1C(=O)N2C(C(=O)O)=C(COC(C)=O)CS[C@H]12)c1csc(N)n1 [CEFOTAXIME],0%
5,CO[C@@]1(NC(=O)Cc2cccs2)C(=O)N2C(C(=O)O)=C(COC(N)=O)CS[C@@H]21 [CEFOXITIN],0%

# Test system: Klebsiella pneumoniae
# Assay: Antimicrobial activity against extended-spectrum-beta-lactamase producing Klebsiella pneumoniae assessed as percent susceptible isolates
row,SMILES,Activity
1,C[C@H]1[C@H](NC(=O)/C(=N\OC(C)(C)C(=O)O)c2csc(N)n2)C(=O)N1S(=O)(=O)O (stereo in doubt) [AZTREONAM],0%
2,NCC[C@H](O)C(=O)N[C@@H]1C[C@H](N)[C@@H](O[C@H]2O[C@H](CN)[C@@H](O)[C@H](O)[C@H]2O)[C@H](O)[C@H]1O[C@H]1O[C@H](CO)[C@@H](O)[C@H](N)[C@H]1O [AMIKACIN],91.4%
3,CO/N=C(\C(=O)N[C@@H]1C(=O)N2C(C(=O)[O-])=C(C[N+]3(C)CCCC3)CS[C@H]12)c1csc(N)n1 [CEFEPIME],0%
4,CO/N=C(\C(=O)N[C@@H]1C(=O)N2C(C(=O)O)=C(COC(C)=O)CS[C@H]12)c1csc(N)n1 [CEFOTAXIME],0%
5,CO[C@@]1(NC(=O)Cc2cccs2)C(=O)N2C(C(=O)O)=C(COC(N)=O)CS[C@@H]21 [CEFOXITIN],74.1%

# From ChEMBL document CHEMBL1143836, “Predictors of mortality in patients with bloodstream infections caused by extended-spectrum-beta-lactamase-producing Enterobacteriaceae: importance of inadequate initial antimicrobial treatment” (2007)
